Experimental data reported in article PMC5007466, “VCP recruitment to mitochondria causes mitophagy impairment and neurodegeneration in models of Huntington's disease” (Nature Communications, 2016).

Legend:
R6/2 mice = experiment: Hindlimb clasping (tail suspension test); assay type: in vivo, mouse; conditions: R6/2, 8 to 11 weeks of age, 3 mg kg^−1 per day, n=15, versus TAT
Description: Male hemizygous R6/2 mice (Tg) and their age-matched wt littermates (5-week-old) were implanted with a 28-day osmotic pump (Alzet, Cupertino CA) containing TAT control peptide or HV-3 peptide, which delivered peptides to the mice at a rate of 3 mg kg^−1 per day. The first pump was implanted subcutaneously in the back of 5-week-old mice between the shoulders and replaced once, after 4 weeks.
Hindlimb clasping was assessed with the tail suspension test once a week from the ages 8 to 11 weeks in R6/2 mice. Mice were suspended by the tail for 60 s and the latency for the hindlimbs or all four paws to clasp was recorded using the score system[67]: Clasping over 10 s, score 3; 5–10 s, score 2; 0–5 s, score 1; 0 s, score 0.

[1] = tested on: HdhQ111 striatal cells and striata of HD R6/2 and YAC128 mice; experiment: VCP total protein level, HD cells and HD mouse striata (western blot); conditions: HV-3 treatment, HD cell cultures and HD animal brains
Description: Protein concentrations were determined by Bradford assay. Protein was resuspended in Laemmli buffer, loaded on SDS–PAGE, and transferred onto nitrocellulose membranes. Membranes were probed with the indicated antibodies, followed by visualization with ECL. Representative blots have been cropped for presentation. Images of full-size blots are presented in Supplementary Fig. 9. […]
green). Lower: the enlarged area is labeled in green. (f) The sequence in VCP corresponding to HV-3 in Htt was deleted (Δ VCP). GST, GST-VCP, or GST-ΔVCP was incubated with total lysates of mouse brain for 16 hours followed by Western blot with anti -Htt antibodies. The representative blots are from three independent experiments.
Supplementary Figure 5: Treatment of peptide inhibitor HV-3 in HD animal models. (a) HD R6/2 mice and wildtype littermates were treated with either a control peptide or peptide HV-3 (3 mg/kg/day, subcutaneous administration with an Alzet osmotic pump) from 5 to 13 weeks of age. The pump was replaced every four weeks. […] Mouse behaviors and HD -associated pathology were determined […] after beginning treatment. […]
(b) To t a l protein lysates were extracted from HdhQ111 striatal cells and the striata of HD R6/2 and YAC128 mice. VCP protein levels were determined by Western blot analysis. […]

CSCC[C@H](NC(=O)[C@@H](NC(=O)[C@H](CC(C)C)NC(=O)[C@@H](NC(=O)[C@H](Cc1c[nH]cn1)NC(=O)CCCCCNC(=O)[C@H](CCCNC(=N)N)NC(=O)[C@H](CCCNC(=N)N)NC(=O)[C@H](CCCNC(=N)N)NC(=O)[C@H](CCC(N)=O)NC(=O)[C@H](CCCNC(=N)N)NC(=O)[C@H](CCCNC(=N)N)NC(=O)[C@H](CCCCN)NC(=O)[C@H](CCCCN)NC(=O)[C@H](CCCNC(=N)N)NC(=O)CNC(=O)[C@@H](N)Cc1ccc(O)cc1)C(C)C)C(C)C)C(=O)N[C@@H](CS)C(=O)N[C@@H](C)C(=O)N[C@H](C(N)=O)[C@@H](C)O [HV-3]
severity of clasping behaviour (R6/2 mice): significantly lower over the 4-week observation period
VCP total protein levels [1]: no effects on VCP total protein levels
